In general, solubility refers to how much of the substance goes into solution per volume. By pIC50 is commonly meant −log10 of the IC50, conventionally taken in molar units.

Data set [1] can be described thus: Turbidimetric kinetic aqueous solubility assay. It is filed as physicochemical. Particulars: kinetic from dmso stock. The procedure:
The determination of the aqueous solubility of compounds in this assay is based on the principle of turbidimetry. Turbidimetric methods rely on the measurement of light scattering from precipitate in solution to determine the solubility. Precipitation is identified by an absorbance increase due to blockage of the light by the particles at the wavelength of 570 nm. Compounds, stored in matrix vials (Thermo Fisher) at a stock concentration of 30 mM or 10 mM in 100% Dimethyl sulfoxide (DMSO), were used to make a serial dilution (dose-response) in a 96-well v-bottom propylene plate (Greiner, 651201). Serial dilutions are made to perform the solubility assay; they were made row-wise and start with undiluted compound (30 mM or 10 mM) in the first well and were then 1 over 3 diluted further on. The serial dilutions were eight doses long and contain six compounds per plate maximal (rows B-G). Columns 1 and 12 were filled with 100% DMSO for control purposes. The dose-response plates were 200-times diluted in 300 µL Phosphate Buffered Saline (PBS; pH = 7–7.2 without Ca^2+/Mg^2+) (Gibco, 14190-144) by transferring 1.5 µL of serially diluted compound. […] Dilutions were made by diluting one 96-well plate in two 96-well, flat-bottom, polystyrene plates (Greiner, 655101). These plates were then incubated at room temperature for 1h. After 1h incubation, the plates were read on the envision (Perkin Elmer) at 570 nm.
The data of this assay is reported as “Soluble at” value for each compound. This “soluble at” value represents the concentration where the compound is still soluble and is the concentration before the first precipitated concentration. The first precipitated concentration is the concentration where the absorbance value is more than five standard deviations higher than the average background absorbance. The average background absorbance and the standard deviation are calculated on the 0.5% DMSO controls in columns 1 and 12.

Another data set has as its system Shigella sonnei. Description: Antimicrobial activity test (growth, OD600). It is filed as cell-based. Particulars: read-out: Bacterial Viability (IC50).
Data set [2] deals with E. coli BW25113::imp-2413+. As to the kind of experiment: Antimicrobial activity test (growth, OD600). Particulars: Escherichia coli, BW25113, read-out: Viability IC50, BW25113::imp-2413+.
In data set [3] the test system is Gram-negative and Gram-positive bacteria. Description: Antimicrobial activity test, summary over Gram-negative and Gram-positive bacteria. It is filed as cell-based. Particulars: for Antibacterial character: 19 Gram-negative and Gram-positive species evaluated; for pIC50: summary over species, read-out: Viability of Gram-negative and Gram-positive bacteria IC50 (range over species).

The test system of data set [4] is PhoA secretion in BW25113ΔtolC. As to the kind of experiment: Lab-scale p-nitrophenyl PhoA secretion assay, ΔtolC strain. The format is cell-based, E. coli.
Where [5] appears, read: pH 7, aqueous buffer, turbidimetry 570 nm, PBS pH 7–7.2, 0.5% DMSO, 1 h, read-out: Aqueous Solubility (soluble at).
[6] abbreviates: pH 7.1, aqueous buffer, selection threshold, Figure 1B, read-out: Solubility.
Where [7] appears, read: Escherichia coli, read-out: Inhibition of PhoA Secretion IC50, Lab-Scale (ΔtolC strain), BW25113ΔtolC, p-nitrophenyl assay.
The mark [8] stands for this setting: Escherichia coli, read-out: Inhibiton of PhoA secretion in ΔtolC strain (Lab-scale) IC50, selection threshold of the screening pipeline, Figure 1B.

The structures appear in SMILES notation. pIC50: −log10 of the molar value. “And” between values parts separate entries of the source, which are not always exact repeats. Equal values may be shown once. Read-outs that look alike come from different tables or passages of the source.

Turning to `O=C(/C=C/c1csnn1)c1ccccc1Cl` [HSI#01], the solubility at 1 h is 50 µM and 12.5 µg/mL in data set [1] (setting [5]); above 15 µM in data set [1] (setting [6]). The pIC50 in the data set with Shigella sonnei was below 4.00; in data set [2] it was 4.63; in data set [3], 4.43 to 6.00; in data set [4] (setting [7]), 5.86; in data set [4] (setting [8]), above 5.70; in data set [4] (read-out: Inhibition of PhoA Secretion IC50, Lab-Scale (ΔtolC strain), BW25113ΔtolC, p-nitrophenyl assay), 5.85. The Antibacterial character result in data set [3] is “bacteriocidal”.

In the case of `O=C(/C=C/c1csnn1)c1cc(Cl)ccc1Cl` [HSI#05], the values for the solubility at 1 h in data set [1] (setting [5]) and in data set [1] (setting [6]) were 4.8 µg/mL and above 15 µM, respectively. Also, the pIC50 is below 4.00 in the data set with Shigella sonnei; 4.99 in data set [2]; 4.43 to 6.00 in data set [3]; 6.03 in data set [4] (setting [7]); above 5.70 in data set [4] (setting [8]). Further, the Antibacterial character result in data set [3] is recorded as “bacteriocidal”.

`O=C(/C=C/c1csnn1)c1cccc2ccccc12` [HSI#10]: the solubility at 1 h in data set [1] (setting [5]) is 4.4 µg/mL; in data set [1] (setting [6]), above 15 µM. Besides, the pIC50 in the data set with Shigella sonnei is below 4.00; in data set [2] it was 4.91; in data set [3], 4.43 to 6.00; in data set [4] (setting [7]), 6.00; in data set [4] (setting [8]), above 5.70. Moreover, the Antibacterial character result in data set [3] is reported as “bacteriocidal”.

Source of the values: publication PMC8000395, “Effective Small Molecule Antibacterials from a Novel Anti-Protein Secretion Screen” (Microorganisms, 2021).
